# Source: patent US8367658B2, “Pyrazin-2-yl-pyridin-2-yl-amine and pyrazin-2-yl-pyrimidin-4-yl-amine compounds and their use” (Cancer Research Technology Limited, priority 2007, dated 2013)
# Values joined by “and” are separate entries in the source; they are usually repeats but may differ in a detail not shown here. Equal entries are not always repeated.
# Biological target: T1, CHK1 (Homo sapiens, UniProt O14757)
# T1 sequence (O14757 1-476): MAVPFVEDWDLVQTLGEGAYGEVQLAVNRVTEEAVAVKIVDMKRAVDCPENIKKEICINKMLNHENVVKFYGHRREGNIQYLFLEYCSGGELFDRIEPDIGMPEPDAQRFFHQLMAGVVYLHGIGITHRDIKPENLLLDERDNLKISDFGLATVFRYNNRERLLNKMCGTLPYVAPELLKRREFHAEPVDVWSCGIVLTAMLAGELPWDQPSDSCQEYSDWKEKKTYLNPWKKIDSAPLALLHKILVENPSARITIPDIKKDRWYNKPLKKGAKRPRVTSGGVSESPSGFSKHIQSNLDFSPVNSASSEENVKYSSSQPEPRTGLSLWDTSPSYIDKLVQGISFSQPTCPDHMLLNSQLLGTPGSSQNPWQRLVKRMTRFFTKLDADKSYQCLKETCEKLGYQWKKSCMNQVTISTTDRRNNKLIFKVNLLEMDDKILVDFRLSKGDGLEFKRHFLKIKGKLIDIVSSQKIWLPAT
# Assay: CHK1 kinase function inhibition assay (DELFIA, phosphorylation of a CDC25C peptide)
# Assay type: biochemical
# Conditions: CHK1 1 nM, ATP 30 μM, 30 minutes at room temperature
# In short: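 Phosphorylation of a CDC25C peptide detected by DELFIA with a phospho-specific antibody. Kinase reaction ran 30 min at room temperature, was stopped with EDTA buffer, then captured on neutravidin-coated plates for 1 h before time-resolved fluorescence read-out with enhancement solution.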
row,Compound,IC50
1,"N#Cc1cnc(Nc2cc(NCCCCN)ncn2)cn1 [Compound Z-016, 5-(6-(4-Aminobutylamino)pyrimidin-4-ylamino)pyrazine-2-carbonitrile]",≤ 1000 nM and 600 nM and 100 to 1000 nM
2,"N#Cc1cnc(Nc2cc(N3CCNCC3)ncn2)cn1 [Compound Z-018, 5-(6-(piperazin-1-yl)pyrimidin-4-ylamino)pyrazine-2-carbonitrile]",1000 to 10000 nM
3,"N#Cc1cnc(Nc2cc(NCC3CCCNC3)ncn2)cn1 (stereo not drawn) [Compound Z-022, 5-(6-(Piperidin-3-ylmethylamino)pyrimidin-4-ylamino)pyrazine-2-carbonitrile]",≤ 1000 nM and 100 to 1000 nM
4,"N#Cc1cnc(Nc2cc(N[C@H]3CCNC3)ncn2)cn1 [Compound Z-024, (S)-5-(6-(Pyrrolidin-3-ylamino)pyrimidin-4-ylamino)pyrazine-2-carbonitrile]",1000 to 10000 nM
5,"N#Cc1cnc(Nc2cc(NCCC[C@@H](N)C(=O)Nc3ccccc3)ncn2)cn1 [Compound Z-025, (R)-2-Amino-5-(6-(5-cyanopyrazin-2-ylamino)pyrimidin-4-ylamino)-N-phenylpentanamide]",≤ 1000 nM and 100 to 1000 nM
6,"N#Cc1cnc(Nc2cc(NCC[C@H](N)C(=O)Nc3ccccc3)ncn2)cn1 [Compound Z-026, (S)-2-Amino-4-(6-(5-cyanopyrazin-2-ylamino)pyrimidin-4-ylamino)-N-phenylbutanamide]",≤ 1000 nM and 100 to 1000 nM
7,"CN1C2CCC1CC(Nc1cc(Nc3cnc(C#N)cn3)ncn1)C2 [Compound Z-027, 5-(6-((1R,3s,5S)-8-Methyl-8-azabicyclo[3.2.1]octan-3-ylamino)pyrimidin-4-ylamino)pyrazine-2-carbonitrile]",≤ 100 nM

# The remaining lines, values ahead:
row,IC50,Compound
1,1000 to 10000 nM,"CC1(CNc2cc(Nc3cnc(C#N)cn3)ncn2)CCNCC1 [Compound Z-028, 5-(6-((4-Methylpiperidin-4-yl)methylamino)pyrimidin-4-ylamino)pyrazine-2-carbonitrile]"
2,≤ 1000 nM and 100 to 1000 nM,"N#Cc1cnc(Nc2cc(NCCC3CCNCC3)ncn2)cn1 [Compound Z-029, 5-(6-(2-(Piperidin-4-yl)ethylamino)pyrimidin-4-ylamino)pyrazine-2-carbonitrile]"
3,1000 to 10000 nM,"CN(CC1CCNCC1)c1cc(Nc2cnc(C#N)cn2)ncn1 [Compound Z-031, 5-(6-(Methyl(piperidin-4-ylmethyl)amino)pyrimidin-4-ylamino)pyrazine-2-carbonitrile]"
4,1000 to 10000 nM,"CC(Nc1cc(Nc2cnc(C#N)cn2)ncn1)C1CCNCC1 (stereo not drawn) [Compound Z-032, 5-(6-(1-(Piperidin-4-yl)ethylamino)pyrimidin-4-ylamino)pyrazine-2-carbonitrile]"
5,1000 to 10000 nM,"N#Cc1cnc(Nc2cc(N[C@H]3CC[C@H](O)CC3)ncn2)cn1 [Compound Z-038, 5-(6-((1r,4r)-4-Hydroxycyclohexylamino)pyrimidin-4-ylamino)pyrazine-2-carbonitrile]"
6,≤ 1000 nM and 100 to 1000 nM,"CC(C)(CO)Nc1cc(Nc2cnc(C#N)cn2)ncn1 [Compound Z-039, 5-(6-(1-Hydroxy-2-methylpropan-2-ylamino)pyrimidin-4-ylamino)pyrazine-2-carbonitrile]"
7,1000 to 10000 nM,"N#Cc1cnc(Nc2cc(NCCCCO)ncn2)cn1 [Compound Z-041, 5-(6-(4-Hydroxybutylamino)pyrimidin-4-ylamino)pyrazine-2-carbonitrile]"
8,1000 to 10000 nM,"COc1nc(Nc2cc(NCC3CCNCC3)ncn2)cnc1C#N [Compound Z-046, 3-Methoxy-5-(6-(piperidin-4-ylmethylamino)pyrimidin-4-ylamino)-pyrazine-2-carbonitrile]"
